# pIC50: −log10 of the molar value.
# Columns and labels:
# Candida tropicalis [1] = assay: Antifungal activity against Candida tropicalis 156 after 24 hrs by broth microdilution method; assay type: functional; settings: Candida tropicalis, 156, 24 h
# Mycobacterium kansasii [2] = assay: Antimycobacterial activity against Mycobacterium kansasii isolate 6509/96 after 21 days by micromethod; assay type: functional; settings: isolate 6509/96, 504 h
# Nakaseomyces glabratus [3] = assay: Antifungal activity against Candida glabrata 20/I after 48 hrs by broth microdilution method; assay type: functional
# Trichosporon asahii [4] = assay: Antifungal activity against Trichosporon asahii 1188 after 24 hrs by broth microdilution method; assay type: functional; settings: Trichosporon asahii, 1188, 24 h
# Staphylococcus aureus [5] = assay: Antibacterial activity against methicillin-resistant Staphylococcus aureus HK5996/08 after 24 hrs by broth microdilution method; assay type: functional; settings: HK5996/08, 24 h
# [6] = tested on: Staphylococcus epidermidis; assay: Antibacterial activity against Staphylococcus epidermidis HK6966/08 after 24 hrs by broth microdilution method; assay type: functional; settings: HK6966/08, 24 h
# Mycobacterium avium [7] = assay: Antimycobacterial activity against Mycobacterium avium CNCTC My 330/80 after 21 days by micromethod; assay type: functional; settings: CNCTC My 330/80, 504 h
# [8] = tested on: Mycobacterium tuberculosis; assay: Antimycobacterial activity against Mycobacterium tuberculosis H37Rv CNCTC My 331/88 after 21 days by micromethod; assay type: functional; settings: H37Rv CNCTC My 331/88, 504 h
# Enterococcus sp. [9] = assay: Antibacterial activity against Enterococcus sp. HK14365/08 after 48 hrs by broth microdilution method; assay type: functional; settings: HK14365/08, 48 h
# Staphylococcus aureus [10] = assay: Antibacterial activity against Staphylococcus aureus ATCC 6538 after 24 hrs by broth microdilution method; assay type: functional; settings: ATCC 6538, 24 h
# Aspergillus fumigatus [11] = assay: Antifungal activity against Aspergillus fumigatus 231 after 24 hrs by broth microdilution method; assay type: functional; settings: Aspergillus fumigatus, 231, 24 h
# Candida albicans [12] = assay: Antifungal activity against Candida albicans ATCC 44859 after 24 hrs by broth microdilution method; assay type: functional; settings: ATCC 44859, 24 h
# Enterococcus sp. [13] = assay: Antibacterial activity against Enterococcus sp. HK14365/08 after 24 hrs by broth microdilution method; assay type: functional; settings: HK14365/08, 24 h
# Aspergillus fumigatus [14] = assay: Antifungal activity against Aspergillus fumigatus 231 after 48 hrs by broth microdilution method; assay type: functional; settings: Aspergillus fumigatus, 231, 48 h
# Trichosporon asahii [15] = assay: Antifungal activity against Trichosporon asahii 1188 after 48 hrs by broth microdilution method; assay type: functional; settings: Trichosporon asahii, 1188, 48 h
# Pseudomonas aeruginosa [16] = assay: Antibacterial activity against Pseudomonas aeruginosa ATCC 9027 after 48 hrs by broth microdilution method; assay type: functional; settings: ATCC 9027, 48 h
# Klebsiella pneumoniae [17] = assay: Antibacterial activity against Klebsiella pneumoniae HK11750/08 after 24 hrs by broth microdilution method; assay type: functional; settings: HK11750/08, 24 h
# [18] = tested on: Trichophyton mentagrophytes; assay: Antifungal activity against Trichophyton mentagrophytes 445 after 72 hrs by broth microdilution method; assay type: functional; settings: Trichophyton mentagrophytes, 445, 72 h
# Mycobacterium avium [19] = assay: Antimycobacterial activity against Mycobacterium avium CNCTC My 330/80 after 14 days by micromethod; assay type: functional; settings: CNCTC My 330/80, 336 h
# Nakaseomyces glabratus [20] = assay: Antifungal activity against Candida glabrata 20/I after 24 hrs by broth microdilution method; assay type: functional
# Klebsiella pneumoniae [21] = assay: Antibacterial activity against extended spectrum beta-lactamase producing Klebsiella pneumoniae HK14368/08 after 24 hrs by broth microdilution method; assay type: functional; settings: HK14368/08, 24 h
# Mycobacterium kansasii [22] = assay: Antimycobacterial activity against Mycobacterium kansasii CNCTC My 235/80 after 7 days by micromethod; assay type: functional; settings: CNCTC My 235/80, 168 h
# Mycobacterium kansasii [23] = assay: Antimycobacterial activity against Mycobacterium kansasii CNCTC My 235/80 after 14 days by micromethod; assay type: functional; settings: CNCTC My 235/80, 336 h
# Pichia kudriavzevii [24] = assay: Antifungal activity against Candida krusei E28 after 48 hrs by broth microdilution method; assay type: functional; settings: E28, 48 h
# Klebsiella pneumoniae [25] = assay: Antibacterial activity against Klebsiella pneumoniae HK11750/08 after 48 hrs by broth microdilution method; assay type: functional; settings: HK11750/08, 48 h
# [26] = tested on: Staphylococcus epidermidis; assay: Antibacterial activity against Staphylococcus epidermidis HK6966/08 after 48 hrs by broth microdilution method; assay type: functional; settings: HK6966/08, 48 h
# Staphylococcus aureus [27] = assay: Antibacterial activity against Staphylococcus aureus ATCC 6538 after 48 hrs by broth microdilution method; assay type: functional; settings: ATCC 6538, 48 h
# [28] = tested on: Trichophyton mentagrophytes; assay: Antifungal activity against Trichophyton mentagrophytes 445 after 120 hrs by broth microdilution method; assay type: functional; settings: Trichophyton mentagrophytes, 445, 120 h
# Mycobacterium kansasii [29] = assay: Antimycobacterial activity against Mycobacterium kansasii CNCTC My 235/80 after 21 days by micromethod; assay type: functional; settings: CNCTC My 235/80, 504 h
# [30] = tested on: Mycobacterium tuberculosis; assay: Antimycobacterial activity against Mycobacterium tuberculosis H37Rv CNCTC My 331/88 after 14 days by micromethod; assay type: functional; settings: H37Rv CNCTC My 331/88, 336 h
# Lichtheimia corymbifera [31] = assay: Antifungal activity against Absidia corymbifera 272 after 48 hrs by broth microdilution method; assay type: functional; settings: Lichtheimia corymbifera, 272, 48 h
# Candida albicans [32] = assay: Antifungal activity against Candida albicans ATCC 44859 after 48 hrs by broth microdilution method; assay type: functional; settings: ATCC 44859, 48 h
# Escherichia coli [33] = assay: Antibacterial activity against Escherichia coli ATCC 8739 after 24 hrs by broth microdilution method; assay type: functional; settings: ATCC 8739, 24 h
# Pseudomonas aeruginosa [34] = assay: Antibacterial activity against Pseudomonas aeruginosa ATCC 9027 after 24 hrs by broth microdilution method; assay type: functional; settings: ATCC 9027, 24 h
# Mycobacterium kansasii [35] = assay: Antimycobacterial activity against Mycobacterium kansasii isolate 6509/96 after 7 days by micromethod; assay type: functional; settings: isolate 6509/96, 168 h
# Mycobacterium kansasii [36] = assay: Antimycobacterial activity against Mycobacterium kansasii isolate 6509/96 after 14 days by micromethod; assay type: functional; settings: isolate 6509/96, 336 h
# Candida tropicalis [37] = assay: Antifungal activity against Candida tropicalis 156 after 48 hrs by broth microdilution method; assay type: functional; settings: Candida tropicalis, 156, 48 h
# Klebsiella pneumoniae [38] = assay: Antibacterial activity against extended spectrum beta-lactamase producing Klebsiella pneumoniae HK14368/08 after 48 hrs by broth microdilution method; assay type: functional; settings: HK14368/08, 48 h
# Pichia kudriavzevii [39] = assay: Antifungal activity against Candida krusei E28 after 24 hrs by broth microdilution method; assay type: functional; settings: E28, 24 h
# Escherichia coli [40] = assay: Antibacterial activity against Escherichia coli ATCC 8739 after 48 hrs by broth microdilution method; assay type: functional; settings: ATCC 8739, 48 h
# Lichtheimia corymbifera [41] = assay: Antifungal activity against Absidia corymbifera 272 after 24 hrs by broth microdilution method; assay type: functional; settings: Lichtheimia corymbifera, 272, 24 h
# Staphylococcus aureus [42] = assay: Antibacterial activity against methicillin-resistant Staphylococcus aureus HK5996/08 after 48 hrs by broth microdilution method; assay type: functional; settings: HK5996/08, 48 h
# CHO-K1 = assay: Cytotoxicity against CHOK1 cells after 24 hrs by MTT assay; assay type: cell-based; settings: Cricetulus griseus, CHO-K1, 24 h
structure (smiles),measurement,setting,value
O=[N+]([O-])c1cc(-c2nnn(Cc3cccc(Cl)c3)n2)cc([N+](=O)[O-])c1,MIC,Candida tropicalis [1],> 500 µM
same,MIC99,Mycobacterium kansasii [2],2 µM
same,MIC,Nakaseomyces glabratus [3],> 500 µM
same,MIC,Trichosporon asahii [4],> 500 µM
same,MIC,Staphylococcus aureus [5],> 500 µM
same,MIC,[6],> 500 µM
same,MIC99,Mycobacterium avium [7],8 µM
same,MIC99,[8],0.5 µM
same,MIC,Enterococcus sp. [9],> 500 µM
same,MIC,Staphylococcus aureus [10],> 500 µM
same,MIC,Aspergillus fumigatus [11],> 500 µM
same,MIC,Candida albicans [12],> 500 µM
same,MIC,Enterococcus sp. [13],> 500 µM
same,MIC,Aspergillus fumigatus [14],> 500 µM
same,MIC,Trichosporon asahii [15],> 500 µM
same,MIC,Pseudomonas aeruginosa [16],> 500 µM
same,MIC,Klebsiella pneumoniae [17],> 500 µM
same,MIC,[18],> 500 µM
same,MIC99,Mycobacterium avium [19],4 µM
same,MIC,Nakaseomyces glabratus [20],> 500 µM
same,MIC,Klebsiella pneumoniae [21],> 500 µM
same,MIC99,Mycobacterium kansasii [22],1 µM
same,MIC99,Mycobacterium kansasii [23],2 µM
same,MIC,Pichia kudriavzevii [24],> 500 µM
same,MIC,Klebsiella pneumoniae [25],> 500 µM
same,MIC,[26],> 500 µM
same,MIC,Staphylococcus aureus [27],> 500 µM
same,MIC,[28],> 500 µM
same,MIC99,Mycobacterium kansasii [29],2 µM
same,MIC99,[30],0.5 µM
same,MIC,Lichtheimia corymbifera [31],> 500 µM
same,MIC,Candida albicans [32],> 500 µM
same,MIC,Escherichia coli [33],> 500 µM
same,MIC,Pseudomonas aeruginosa [34],> 500 µM
same,MIC99,Mycobacterium kansasii [35],0.5 µM
same,MIC99,Mycobacterium kansasii [36],1 µM
same,MIC,Candida tropicalis [37],> 500 µM
same,MIC,Klebsiella pneumoniae [38],> 500 µM
same,MIC,Pichia kudriavzevii [39],> 500 µM
same,MIC,Escherichia coli [40],> 500 µM
same,MIC,Lichtheimia corymbifera [41],> 500 µM
same,MIC,Staphylococcus aureus [42],> 500 µM
same,pIC50,CHO-K1,4.57
O=[N+]([O-])c1cc(-c2nnnn2Cc2ccccc2)cc([N+](=O)[O-])c1,MIC,Candida tropicalis [1],250 µM
same,MIC99,Mycobacterium kansasii [2],4 µM
same,MIC,Nakaseomyces glabratus [3],250 µM
same,MIC,Trichosporon asahii [4],250 µM
same,MIC,Staphylococcus aureus [5],31.2 µM
same,MIC,[6],62.5 µM
same,MIC99,Mycobacterium avium [7],32 µM
same,MIC99,[8],2 µM
same,MIC,Enterococcus sp. [9],62.5 µM
same,MIC,Staphylococcus aureus [10],62.5 µM
same,MIC,Aspergillus fumigatus [11],> 500 µM
same,MIC,Candida albicans [12],62.5 µM
same,MIC,Enterococcus sp. [13],62.5 µM
same,MIC,Aspergillus fumigatus [14],> 500 µM
same,MIC,Trichosporon asahii [15],250 µM
same,MIC,Pseudomonas aeruginosa [16],500 µM
same,MIC,Klebsiella pneumoniae [17],250 µM
same,MIC,[18],500 µM
same,MIC99,Mycobacterium avium [19],16 µM
same,MIC,Nakaseomyces glabratus [20],250 µM
same,MIC,Klebsiella pneumoniae [21],250 µM
same,MIC99,Mycobacterium kansasii [22],8 µM
same,MIC99,Mycobacterium kansasii [23],8 µM
same,MIC,Pichia kudriavzevii [24],250 µM
same,MIC,Klebsiella pneumoniae [25],125 µM
same,MIC,[26],62.5 µM
same,MIC,Staphylococcus aureus [27],62.5 µM
same,MIC,[28],500 µM
same,MIC99,Mycobacterium kansasii [29],8 µM
same,MIC99,[30],2 µM
same,MIC,Lichtheimia corymbifera [31],500 µM
same,MIC,Candida albicans [32],62.5 µM
same,MIC,Escherichia coli [33],125 µM
same,MIC,Pseudomonas aeruginosa [34],500 µM
same,MIC99,Mycobacterium kansasii [35],2 µM
same,MIC99,Mycobacterium kansasii [36],4 µM
same,MIC,Candida tropicalis [37],250 µM
same,MIC,Klebsiella pneumoniae [38],125 µM
same,MIC,Pichia kudriavzevii [39],250 µM
same,MIC,Escherichia coli [40],62.5 µM
same,MIC,Lichtheimia corymbifera [41],500 µM
same,MIC,Staphylococcus aureus [42],15.6 µM
same,pIC50,CHO-K1,4.74
COc1cccc(Cn2nnc(-c3cc([N+](=O)[O-])cc([N+](=O)[O-])c3)n2)c1,MIC,Candida tropicalis [1],> 500 µM
same,MIC99,Mycobacterium kansasii [2],2 µM
same,MIC,Nakaseomyces glabratus [3],> 500 µM
same,MIC,Trichosporon asahii [4],> 500 µM
same,MIC,Staphylococcus aureus [5],> 500 µM
same,MIC,[6],> 500 µM
same,MIC99,Mycobacterium avium [7],8 µM
same,MIC99,[8],1 µM
same,MIC,Enterococcus sp. [9],> 500 µM
same,MIC,Staphylococcus aureus [10],> 500 µM
same,MIC,Aspergillus fumigatus [11],> 500 µM
same,MIC,Candida albicans [12],> 500 µM
same,MIC,Enterococcus sp. [13],> 500 µM
same,MIC,Aspergillus fumigatus [14],> 500 µM
same,MIC,Trichosporon asahii [15],> 500 µM
same,MIC,Pseudomonas aeruginosa [16],> 500 µM
same,MIC,Klebsiella pneumoniae [17],> 500 µM
same,MIC,[18],> 500 µM
same,MIC99,Mycobacterium avium [19],4 µM
same,MIC,Nakaseomyces glabratus [20],> 500 µM
same,MIC,Klebsiella pneumoniae [21],> 500 µM
same,MIC99,Mycobacterium kansasii [22],1 µM
same,MIC99,Mycobacterium kansasii [23],2 µM
same,MIC,Pichia kudriavzevii [24],> 500 µM
same,MIC,Klebsiella pneumoniae [25],> 500 µM
same,MIC,[26],> 500 µM
same,MIC,Staphylococcus aureus [27],> 500 µM
same,MIC,[28],> 500 µM
same,MIC99,Mycobacterium kansasii [29],4 µM
same,MIC99,[30],1 µM
same,MIC,Lichtheimia corymbifera [31],> 500 µM
same,MIC,Candida albicans [32],> 500 µM
same,MIC,Escherichia coli [33],> 500 µM
same,MIC,Pseudomonas aeruginosa [34],> 500 µM
same,MIC99,Mycobacterium kansasii [35],1 µM
same,MIC99,Mycobacterium kansasii [36],2 µM
same,MIC,Candida tropicalis [37],> 500 µM
same,MIC,Klebsiella pneumoniae [38],> 500 µM
same,MIC,Pichia kudriavzevii [39],> 500 µM
same,MIC,Escherichia coli [40],> 500 µM
same,MIC,Lichtheimia corymbifera [41],> 500 µM
same,MIC,Staphylococcus aureus [42],> 500 µM
same,pIC50,CHO-K1,< 4.00

# Reference: ChEMBL document CHEMBL4011590, “Structure-activity relationship studies on 3,5-dinitrophenyl tetrazoles as antitubercular agents” (Eur J Med Chem, 2017)
